Measured values published in publication PMC8328489, “Automated Synthesis and Initial Evaluation of (4′-Amino-5′,8′-difluoro-1′H-spiro[piperidine-4,2′-quinazolin]-1-yl)(4-[^18F]fluorophenyl)methanone for PET/MR Imaging of Inducible Nitric Oxide Synthase” (Molecular Imaging, 2021).

Key:
[1] = Whole-body dynamic PET/MR biodistribution and blood clearance; assay type: in vivo, C57BL/6 mice
Experimental: Mice (n = 30) were anesthetized with 2% isoflurane (in oxygen) and injected with [^18F]FBAT (11.1 MBq; 0.3 mCi) via the tail vein. Dynamic PET images were obtained in fully three-dimensional list mode for 30 min using a small animal SuperArgus 2r PET system (SEDECAL, Madrid, Spain) or 7T PETMR Inline (Bruker, Rheinstetten, Germany; energy window, 350-650 keV; timing window, 6 ns). Images were acquired every 10 s for 12 images, 60 s for three images, 300 s for three images, or 600 s for […]. The anatomical structure of the brain was imaged using T2 MRI. The MRI sequences included 0.5 mm thick T2 Turbo RARE high-resolution images (TR = 3000 ms, TE, 46 ms, matrix, 512 × 256, average, 40, slice number, 30, field of view, 20 × 10 mm).
Images were reconstructed by the Fourier rebinning algorithm and two-dimensional filtered back projection using a ramp filter with a cutoff at Nyquist. The regional radioactivity concentration (kBq/cc) of [^18F]FBAT was estimated from the mean pixel values within the region of interest (ROI) corresponding to MR images of various organs and regions of the brain. ROI for carotid artery, heart muscle, lung, liver, spleen, and kidney were defined and time activity curves (TACs) generated. TACs for whole brain, cortex, cerebellum, and brainstem were also determined as described above.
The concentration of radioactivity (kBq/cc, μCi/cc) was converted to standardized uptake value (SUV), and the mean and standard deviation (SD) of radiotracer accumulation values were calculated for different organs and regions of the brain. Data were analyzed with PMOD 4.0 software (PMOD Technologies Ltd., Zurich, Switzerland).

[2] = system: murine microglial BV2 cells; assay: In vitro [^18F]FBAT uptake assay; assay type: cell-based
Experimental: BV2 cells were cultured as described above, washed three times with fresh medium, pretreated with a selective iNOS inhibitor, aminoguanidine (AMG), (0, 1, or 0.1 mM) for 1 h, and then treated with cell culture media containing LPS and the inhibitor. At the indicated time points, the cells were washed thrice with fresh cell culture media, then incubated in fresh cell culture media continuing the radiotracer [^18F]FBAT at 0.37 MBq/mL for 15, 30, or 60 min, harvested by gentle scraping, and pelleted by centrifugation at 1500 g for 2 min. The weight of the cell pellet and 0.1 mL of the radioactive supernatant was determined. A Packard 5500 gamma counter (PerkinElmer, Billerica, MA, USA) was used to quantify radioactivity as cpm/g cells or cpm/mL media, respectively. Cell-to-medium radioactivity concentration ratios were calculated and plotted over time to evaluate the kinetics of accumulation of the radiotracer.
iNOS is the enzyme responsible for NO generation in BV2 cells; therefore, accumulation of [^18F]FBAT in BV2 cells before or after iNOS inhibitor versus NO production was also assessed.

[3] = Radiolabeled metabolites in blood plasma (radio-HPLC); assay type: in vivo, Sprague-Dawley rats; conditions: rat, i.v.
Experimental: Adult Sprague-Dawley rats (n = 3) were anesthetized with 2% isoflurane (in oxygen) and injected with 194.87 MBq ± 22.61 MBq of [^18F]FBAT in the tail vein. Plasma was extracted from heparinized blood samples (0.25 mL) with 3x volumes of acetonitrile and analyzed with radio-HPLC; mobile phase: 40% MeCN/0.10% TEA in water at 1 mL/min. This method affords retention time of [^18F]FBAT which was 18.1–18.9 min. Fractions of [^18F]FBAT and metabolites were calculated for each sample based on the area under each peak. The radioactivity concentration in the whole blood and plasma was assayed using a gamma counter (Cobra, Packard, CT).

## NC1=NC2(CCN(C(=O)c3ccc([18F])cc3)CC2)Nc2c(F)ccc(F)c21 [[^18F]FBAT, (4′-amino-5′,8′-difluoro-1′H-spiro[piperidine-4,2′-quinazolin]-1-yl)(4-[^18F]fluorophenyl)methanone]
[1]; 30 min post i.v. injection, brain imaging study
  level of [^18F]FBAT in blood (carotid ROI): 0.30 ± 0.06 SUV
[1]; 30 min postinjection, whole-body biodistribution study
  radioactivity remaining in the blood pool: 0.298 ± 0.019 SUV
[1]; after injection
  time of peak radioactivity in heart muscle: ≤ 1 min
[1]; carotid, i.v.
  blood clearance half-life, first phase (biexponential): 1.05 ± 0.58 min
  blood clearance half-life, second phase (biexponential): 24.9 ± 7.46 min
[1]; postinjection
  time of peak accumulation in the lungs: 1 to 2 min
[1]; up to 30 min postinjection
  accumulation of radioactivity in skeletal structures: No accumulation
[2]; 60 min
  [^18F]FBAT accumulation, LPS-induced vs control BV2 cells: more than 1.7 fold
[2]; LPS-induced BV2 cells, after 1 h
  cells-per-medium concentration ratio at plateau: 180–200
[2]; control BV2 cells
  cells-per-medium concentration ratio at plateau: ~100
[3]; 120 min after injection
  metabolites fraction in plasma: ~94.02%
[3]; first 5 minutes
  parent compound fraction in plasma: 77.98%
